Results taken from US6444683B2, “17-azolyl steroids useful as androgen synthesis inhibitors” (University of Maryland at Baltimore, priority 1997, dated 2002).
Values joined by “and” are separate entries in the source; they are usually repeats but may differ in a detail not shown here. Equal entries are not always repeated. “Also recorded” adds a separate entry of the source. Where two headings read alike, the source gives them in different places.

Experiments:
[1] = small group of men with advanced prostatic cancer; cited from earlier work
Human P45017α = molecular target: T1, Human P45017α (Homo sapiens, UniProt P05093); experiment: Inhibition of human testicular microsomal P45017α (lyase activity, release of C3H3COOH from [21-3H3]-17α-hydroxypregnenolone); type: biochemical; conditions: for Ki: Human P45017α Ki; for inhibition at 0.15 µM: read-out: % Inhibition of human P45017α
T1 construct: Human testicular microsomes were prepared from human testes; from tissue; host or cells: human testes (untreated prostatic cancer patients undergoing orchidectomy), microsomal fraction
T1 sequence (P05093 1-508): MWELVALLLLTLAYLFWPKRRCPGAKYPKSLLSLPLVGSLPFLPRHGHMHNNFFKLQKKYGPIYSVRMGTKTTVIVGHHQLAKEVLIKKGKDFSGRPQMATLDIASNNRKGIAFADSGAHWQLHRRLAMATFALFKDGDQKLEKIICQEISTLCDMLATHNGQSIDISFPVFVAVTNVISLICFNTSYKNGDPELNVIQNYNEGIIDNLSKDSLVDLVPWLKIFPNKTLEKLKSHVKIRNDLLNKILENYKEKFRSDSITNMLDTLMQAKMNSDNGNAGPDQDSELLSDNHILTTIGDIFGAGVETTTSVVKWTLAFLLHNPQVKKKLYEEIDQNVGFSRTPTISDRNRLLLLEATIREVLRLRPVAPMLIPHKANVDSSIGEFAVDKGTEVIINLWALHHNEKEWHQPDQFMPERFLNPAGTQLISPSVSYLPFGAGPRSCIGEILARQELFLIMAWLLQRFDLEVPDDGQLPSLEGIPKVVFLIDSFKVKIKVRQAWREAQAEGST
Description: (§1) The microsomes were stored at −70° C. until assayed. Just before use, the thawed microsomes were diluted with 0.1 M phosphate buffer (pH 7.4) to appropriate concentrations.
(§2) This assay measures only the lyase activity of the P45017α enzyme.
(§3) IC50 values for inhibitors were calculated from the linear regression line in the plot of logit of lyase activity versus log of inhibitor concentration. […] Each inhibitor was examined at three concentrations.

Rat P45017α = molecular target: T2, Rat P45017α (Rattus norvegicus, UniProt P11715); experiment: Inhibition of rat testicular microsomal P45017α (lyase activity); type: biochemical; conditions: for Increase of potency towards the rat enzyme compared with human P45017α: from IC50 values, rat vs human testicular microsomes
T2 sequence (P11715 1-507): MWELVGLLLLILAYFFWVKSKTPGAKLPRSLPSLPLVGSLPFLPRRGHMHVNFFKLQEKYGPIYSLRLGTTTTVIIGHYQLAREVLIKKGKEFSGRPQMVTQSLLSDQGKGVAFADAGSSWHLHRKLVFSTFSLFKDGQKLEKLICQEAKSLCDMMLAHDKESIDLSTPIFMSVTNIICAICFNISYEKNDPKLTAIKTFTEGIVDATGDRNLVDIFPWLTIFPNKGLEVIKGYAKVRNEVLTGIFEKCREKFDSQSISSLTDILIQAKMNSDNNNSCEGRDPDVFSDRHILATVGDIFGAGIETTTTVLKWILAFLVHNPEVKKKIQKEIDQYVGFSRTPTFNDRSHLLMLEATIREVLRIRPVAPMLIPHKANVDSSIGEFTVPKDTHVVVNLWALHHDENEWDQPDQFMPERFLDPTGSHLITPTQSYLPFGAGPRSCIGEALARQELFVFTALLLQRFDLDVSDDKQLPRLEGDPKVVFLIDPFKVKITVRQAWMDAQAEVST
Description: as §1, §2, §3

[2] = molecular target: T3, human prostate 5α-reductase (Homo sapiens, UniProt P31213); experiment: Inhibition of human prostate 5α-reductase in BPH microsomes (conversion of [7-3H]-testosterone to DHT); type: biochemical; conditions: for Inhibition of 5α-reductase, in words: human prostate enzyme
T3 construct: The enzymatic reactions were initiated by addition of human BPH microsomes; from tissue; host or cells: human benign prostatic hyperplasia (BPH) tissue, microsomal fraction
T3 sequence (P31213 1-254): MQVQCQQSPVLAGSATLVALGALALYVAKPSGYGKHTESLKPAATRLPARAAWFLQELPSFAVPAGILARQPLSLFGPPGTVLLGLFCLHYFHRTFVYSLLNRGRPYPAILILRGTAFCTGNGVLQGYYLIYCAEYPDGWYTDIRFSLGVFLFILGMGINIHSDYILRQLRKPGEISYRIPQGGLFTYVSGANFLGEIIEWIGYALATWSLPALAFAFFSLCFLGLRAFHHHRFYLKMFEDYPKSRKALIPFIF
Description: […] The ethanol was evaporated to dryness under a gentle stream of air. […] The enzymatic reactions were initiated by addition of human BPH microsomes (about 180 μg of microsomal protein in 500 μl of phosphate buffer) in a total volume of 1.0 ml, and the incubations were performed for 10 min under oxygen in a shaking water bath at 37° C. The incubations were terminated by placing the sample tubes on ice and the addition of ether. Also, [^14C]-DHT (3000 dpm) and cold DHT (50 μg) were added to each tube as an internal standard and visualization marker, respectively. The steroids were extracted with ether and separated by TLC (chloroform:ether, 80:20) and visualized by exposure to iodine vapor. The extracts were analyzed for ^3H and ^14C using a liquid scintillation counter. The percentage conversion of [7-^3H]-testosterone to [^3H]-dihydrotestosterone was calculated and used to determine 5α-reductase activity.

[3] = tested on: LNCaP human prostatic cancer cell; experiment: Androgen-stimulated growth of LNCaP human prostatic cancer cells in vitro; conditions: for Toxicity to LNCaP cells: concentration range 0.5-5.0 μM; for Antiandrogenic effects: inferred from inhibition of androgen-stimulated LNCaP growth
[4] = Stability at room temperature (TLC evidence); type: physicochemical
Description: The method followed that described for Synthesis Example 14, but using 3β-acetoxy-17-(1H-tetrazol-1-yl)-16-formylandrosta-5,16-diene (Compound 23) (140 mg, 0.3415 mmol). Purification of the crude product by FCC (silica gel, pet. ether/EtOAc (3:1)) gave Compound 26 (45 mg, 34.5%); ^1H NMR (300 MHz, CDCl3): δ 1.08 (3H, s, 18-Me), 1.20 (3H, s, 19-Me), 2.04 (3H, s, 3β-OAc), 4.62 (1H, m, 3α-H), 5.42 (1H, d, J=4.6Hz, 6-H), 6.00 (1H, s, 16-H) and 8.93 (1H, s, 5′-H). […] (TLC evidence) and was used for the subsequent reaction without further characterization.

[5] = tested on: LNCaP human prostatic cancer cell; conditions: cited from earlier work
serum DHT levels = conditions: BPH patients; cited from earlier work
[6] = from Lineweaver-Burk plots and slope replots, Km of 17α-hydroxypregnenolone 560 nM
[7] = inhibitor 150 nM, substrate 17α-hydroxypregnenolone 10 μM, mean of two determinations
[8] = rat testicular microsomes, mean ± SDM of at least two experiments, read-out: Rat P45017α IC50
[9] = human BPH microsomes, mean ± SDM of at least two experiments, read-out: 5α-Reductase IC50
[10] = Homo sapiens, LNCaP, read-out: Inhibition of DHT-induced growth of LNCaP cells
[11] = Homo sapiens, LNCaP, read-out: Inhibition of testosterone-stimulated growth of LNCaP cells

Compound	IC50 (Human P45017α) [nM]	Inhibition of human P45017α, in words (Human P45017α; human testicular microsomes)	Increase of potency towards the rat enzyme compared with human P45017α (Rat P45017α)	Inhibition of rat testicular P45017α, in words (Rat P45017α; rat testicular microsomes)	IC50 (Rat P45017α; [8]) [nM]	IC50 [2, 9] [nM]	Inhibition of 5α-reductase, in words [2]	other results
C[C@]12CCC(=O)C(O)=C1CC[C@@H]1[C@@H]2CC[C@]2(C)C(=O)CC[C@@H]12 [Compound 4-OHA, 4-hydroxyandrostene-3,17-dione]	–	–	–	–	–	–	–	Patients with subjective responses [1]: 80%
C[C@]12CC[C@H](O)CC1=CC[C@@H]1[C@@H]2CC[C@]2(C)C(n3cncn3)=CC[C@@H]12 [Compound 6, 3β-hydroxy-17-(1H, 1,2,4-triazol-1-yl)androsta-5,16-diene]	90	potent inhibitors; also recorded: powerful inhibitors	3.5 fold	powerful inhibitors	26 ± 13	~160000	poor inhibitors	melting point: 185 to 189 °C (dec.); Ki (Human P45017α; [6]): 23 nM; inhibition at 0.15 µM (Human P45017α; [7]): 60%
C[C@]12CCC(=O)C=C1CC[C@@H]1[C@@H]2CC[C@]2(C)C(n3cncn3)=CC[C@@H]12 [Compound 7, 17-(1H, 1,2,4-triazol-1-yl)androsta-4,16-diene-3-one]	–	powerful inhibitors	5 fold	powerful inhibitors	11 ± 3	152 ± 10	potent inhibitors	IC50 (Human P45017α; human testicular microsomes, mean ± SDM of at least two experiments, read-out: Human P45017α IC50): 55 ± 11 nM
C[C@]12CC[C@H](O)CC1=CC[C@@H]1[C@@H]2CC[C@]2(C)C(n3ccnc3)=CC[C@@H]12 [Compound 11, 3β-hydroxy-17-(1H-imidazol-1-yl)androsta-5,16-diene]	8	potent inhibitors; also recorded: powerful inhibitors	unchanged	powerful inhibitors	–	–	poor inhibitors; also recorded: neither compound inhibited 5α-reductase	Ki (Human P45017α): 1.2 nM; Nature of inhibition kinetics of P45017α (Human P45017α; Lineweaver-Burk analysis, progress curves): slow-binding inhibitor; inhibition at 0.15 µM (Human P45017α): 97%; IC50 (Rat P45017α): 9 ± 2 nM; inhibition at 2.5 µM [3, 10]: 100%; inhibition at 1 µM [3, 11]: 100%; Toxicity to LNCaP cells [3]: nor was toxic to the cells; Antiandrogenic effects [3]: strong antiandrogenic effects; IC50 [2]: ~400000 nM
C[C@]12CCC(=O)C=C1CC[C@@H]1[C@@H]2CC[C@]2(C)C(n3ccnc3)=CC[C@@H]12 [Compound 12, 17-(1H-imidazol-1-yl)androsta-4,16-diene-3-one]	7 ± 1	powerful inhibitors	unchanged	powerful inhibitors	8 ± 0.7	142 ± 5	potent inhibitors	Ki (Human P45017α; [6]): 1.8 nM and 1.9 nM
C[C@]12CC[C@H]3[C@@H](CCC4=CC(=O)CC[C@@]43C)[C@@H]1CC[C@@H]2n1ccnc1 [Compound 14, 17β-(1H-imidazol-1-yl)androst-4-ene-3-one]	36	–	–	–	–	–	–	IC50 [2]: 765 ± 100 nM
C[C@]12CC[C@H](O)CC1=CC[C@@H]1[C@@H]2CC[C@]2(C)C(n3ccnn3)=CC[C@@H]12 [Compound 20, 3β-hydroxy-17-(1H-1,2,3-triazol-1-yl)androsta-5,16-diene]	13 ± 1	potent inhibitors; also recorded: powerful inhibitors	–	–	–	~10000	–	Ki (Human P45017α): 1.4 nM; inhibition at 0.15 µM (Human P45017α; [7]): 94%; IC50 (Rat P45017α): 10 ± 0.4 nM; inhibition at 5 µM [3, 10]: 100%; inhibition at 2.5 µM [3, 11]: 100%; Toxicity to LNCaP cells [3]: nor was toxic to the cells; Antiandrogenic effects [3]: strong antiandrogenic effects
C[C@]12CCC(=O)C=C1CC[C@@H]1[C@@H]2CC[C@]2(C)C(n3ccnn3)=CC[C@@H]12 [Compound 21, 17-(1H-1,2,3-triazol-1-yl)androsta-4,16-diene-3-one]	19 ± 1	powerful inhibitors	2 fold	powerful inhibitors	9 ± 2	198 ± 33	potent inhibitors	melting point: 118 to 120 °C; Ki (Human P45017α; [6]): 8 nM
CC(=O)O[C@H]1CC[C@@]2(C)C(=CC[C@@H]3[C@@H]2CC[C@]2(C)C(n4cnnn4)=CC[C@@H]32)C1 [Compound 26, 3β-acetoxy-17-(1H-tetrazol-1-yl)androsta-5,16-diene]	–	–	–	–	–	–	–	Stability at room temp. [4]: not particularly stable at room temp.
C[C@]12CCC(=O)C[C@@H]1CC[C@@H]1[C@@H]2CC[C@]2(C)[C@@H](O)CC[C@@H]12 [DHT, dihydrotestosterone]	–	–	–	–	–	–	–	Stimulation of proliferation of LNCaP cells compared to control ([5]; 30 pM DHT): 5 fold
CC(C)(C)NC(=O)[C@H]1CC[C@H]2[C@@H]3CC[C@H]4NC(=O)C=C[C@]4(C)[C@H]3CC[C@]12C [Finasteride, reference compound]	–	–	–	–	–	–	–	Reduction of serum DHT levels (serum DHT levels): 65-80%; IC50 [2]: 33 ± 2 nM
C[C@]12CC[C@H]3[C@@H](CCC4=CC(=O)CC[C@@]43C)[C@@H]1CC[C@@H]2O [testosterone]	–	–	–	–	–	–	–	Increase of growth of LNCaP cells compared to vehicle-treated cells ([5]; 0.1 nM testosterone): 6 fold
